Results: patent US20130183239A1, “ISOTOPIC CARBON CHOLINE ANALOGS” (IMPERIAL COLLEGE, priority 2010, published 2013)
“Also recorded” adds a separate entry of the source.

Key:
HCT116 cells = assay: [18F]D4-FCH-phosphocholine formation in HCT116 cells treated with PD0325901; type: cell-based, human; details: PD0325901 1 μM for 24 h, 60-min uptake
Protocol: HCT116 cells were grown in T150 flasks in triplicate until they were 70% confluent and then treated with vehicle (1% DMSO in growth medium) or 1 μmol/L PD0325901 in vehicle for 24 h. Cells were pulsed for 1 h with 1.1 MBq of either […]D4—FCH or [^18F]FCH. The cells were washed three times in ice-cold phosphate buffered saline (PBS), scraped into 5 mL PBS, and centrifuged at 500×g for 3 min and then resuspended in 2 mL ice-cold methanol for HPLC analysis as described above for tissue samples. […] Briefly, HCT116 cells were grown in 100 mm dishes in triplicate and incubated with 5.0 MBq [^18F]FCH for 60 min at 37° C. to form the putative [^18F]FCH-phosphate. The cells were washed with 5 mL ice-cold PBS twice and then scraped and centrifuged at 750×g (4° C., 3 min) in 5 mL PBS. Cells were homogenized in 1 mL of 5 mmol/L Tris-HCl (pH 7.4) containing 50% (v/v) glycerol, 0.5 mmol/L MgCl2, and 0.5 mmol/L ZnCl2 and incubated with 10 units bacterial (type III) alkaline phosphatase (Sigma) at 37° C. in a shaking water bath for 30 min to dephosphorylate the [^18F]FCH-phosphate. The reaction was terminated by adding ice-cold methanol. Samples were processed as per plasma above and analyzed by radio-HPLC. Control experiments were done without alkaline phosphatase. […]

choline kinase A (CHKA) = assay: Western blot of choline kinase A expression in HCT116 tumors after PD0325901; type: in vivo, human; details: HCT116 tumors at day 10, western blot
Protocol: HCT116 tumors from mice that were injected with PD0325901 (25 mg/kg daily for 10 days, orally) or vehicle were analyzed for CHKA expression by western blotting. β-actin was used as the loading control. (b) Summary densitometer measurements for CHKA expression expressed as a ratio to β-actin. The results are the mean ratios±SE; n=3, * P=0.05.
(§1) Size-matched HCT116 tumor bearing mice were randomized to receive daily treatment by oral gavage of vehicle (0.5% hydroxypropyl methylcellulose+0.2% Tween 80) or 25 mg/kg (0.005 mL/g mouse) of the mitogenic extracellular kinase inhibitor, PD0325901, prepared in vehicle. [^18F]D4-FCH-PET scanning was done after 10 daily treatments with the last dose administered 1 h before scanning. […] The results are illustrated in FIGS. 18 and 19.
To understand further the mechanisms regulating [^18F]D4-FCH uptake with drug treatment, changes in CHKA expression in PD0325901 and vehicle-treated tumors excised after PET scanning were assessed.

HCT116 tumors = assay: PD0325901 treatment of HCT116 tumor-bearing mice with [18F]D4-FCH-PET; type: in vivo
Protocol: as §1
These studies were performed in a reproducible tumor model system in which treatment outcomes had been previously characterized, i.e., the human colon carcinoma xenograft HCT116 treated with PD0325901 daily for 10 days (Leyton, J., et al., “Noninvasive imaging of cell proliferation following mitogenic extracellular kinase inhibition by PD0325901”, Mol Cancer Ther 2008; 7(9):3112-21). […] All imaging variables decreased after 10 days of drug treatment (P=0.05, FIG. 18). […] To understand the biomarker changes, the intrinsic cellular effect of PD0325901 on D4-FCH-phosphocholine formation was examined by treating exponentially growing HCT116 cells in culture with PD0325901 for 24 h and measuring the 60-min uptake of [^18F]D4-FCH in vitro.

CHKA = CHKA expression in exponentially growing cells treated with PD0325901; type: cell-based
[1] = mouse, in vivo
Protocol: Metabolite analysis of tissues including liver, kidney and tumor by HPLC was also accomplished. […] Choline and its metabolites lack any UV chromophore to permit presentation of chromatograms of the cold unlabelled compound simultaneously with the radioactivity chromatograms.
Liver, kidney, and tumor samples were obtained at 30 min. All samples were snap-frozen in liquid nitrogen. For analysis, samples were thawed and kept at 4° C. immediately before use. To ˜0.2 mL plasma was added ice-cold methanol (1.5 mL). The mixture was then centrifuged (3 min, 15,493×g, 4jC). The supernatant was evaporated to dryness using a rotary evaporator (Heidoloph Instruments) at a bath temperature of 40° C. The residue was suspended in mobile phase (1.1 mL), clarified (0.2 Am filter), and analyzed by HPLC. Liver, kidney, and tumor samples were homogenized in ice-cold methanol (1.5 mL) using an IKA Ultra-Turrax T-25 homogenizer and subsequently treated as per plasma samples (above). All samples were analyzed by radio-HPLC on an Agilent 1100 series HPLC system (Agilent Technologies) equipped with a γ-RAM Model 3 γ-detector (IN/US Systems) and Laura 3 software (Lablogic). The stationary phase comprised a Waters μBondapak C18 reverse-phase column (300×7.8 mm) (Waters, Milford, Mass., USA). Samples were analyzed using a mobile phase comprising solvent A (acetonitrile/water/ethanol/acetic acid/1.0 mol/L ammonium acetate/0.1 mol/L sodium phosphate; 800/127/68/2/3/10) and solvent B (acetonitrile/water/ethanol/acetic acid/1.0 mol/L ammonium acetate/0.1 mol/L sodiumphosphate; 400/400/68/44/88/10) with a gradient of 0% B for 6 min, then 0→100% B in 10 min, 100% B for 0.5 min, 100→0% B in 1.5 min then 0% B for 2 min, delivered at a flow rate of 3 mL/min.

[2] = C3H-Hej, mouse, in vivo, iv, 15 min
[3] = tested on: human melanoma SKMEL-28 xenografts; details: mouse, in vivo, 60 min
Protocol: (§2) Dynamic [^18F]FCH and [^18F]D4-FCH imaging scans were carried out on a dedicated small animal PET scanner, quad-HIDAC (Oxford Positron Systems). The features of this instrument have been described previously (Barthel, H., et al., Cancer Res 2003; 63(13):3791-8). For scanning the tail veins, vehicle- or drug-treated mice were cannulated after induction of anesthesia (isofluorane/O2/N2O). The animals were placed within a thermostatically controlled jig (calibrated to provide a rectal temperature of ˜37° C.) and positioned prone in the scanner. [^18F]FCH or [^18F]D4-FCH (2.96-3.7 MBq) was injected via the tail vein cannula and scanning commenced. Dynamic scans were acquired in list mode format over a 60 min period as reported previously (Leyton, J., et al., Cancer Research 2006; 66(15):7621-9). The acquired data were sorted into 0.5 mm sinogram bins and 19 time frames (0.5×0.5×0.5 mm voxels; 4×15, 4×60, and 11×300 s) for image reconstruction, which was done by filtered back-projection using a two-dimensional Hamming filter (cutoff 0.6). The image data sets were visualized using the Analyze software (version 6.0; Biomedical Imaging Resource, Mayo Clinic). Cumulative images of 30 to 60 min dynamic data were used for visualization of radiotracer uptake and to draw regions of interest. Regions of interest were defined manually on five adjacent tumor regions (each 0.5 mm thickness). Dynamic data from these slices were averaged for each tissue (liver, kidney, muscle, urine, and tumor) and at each of the 19 time points to obtain time versus radioactivity curves. Corresponding whole body time versus radioactivity curves representing injected radioactivity were obtained by adding together radioactivity in all 200×160×160 reconstructed voxels. Tumor radioactivity was normalized to whole-body radioactivity and expressed as percent injected dose per voxel (% ID/vox). The normalized uptake of radiotracer at 60 min (% ID/vox60) was used for subsequent comparisons. The average of the normalized maximum voxel intensity across five slices of tumor % IDvox60max was also use for comparison to account for tumor heterogeneity and existence of necrotic regions in tumor. The area under the curve was calculated as the integral of % ID/vox from 0 to 60 min.

[4] = mouse, in vivo, 60 min
Protocol: as §2

choline oxidase = details: 60 min, 1.76 MBq/mL, pH 7
[5] = Potassium permanganate oxidation study; type: physicochemical; details: 1 hour post-treatment with potassium permanganate, room temperature, radio-HPLC
From the text: Reagents and Conditions: i) KMnO4, Na2CO3, H2O, rt.

## O=C(NOC[C@H](O)CO)c1ccc(F)c(F)c1Nc1ccc(I)cc1F [PD0325901]
HCT116 cells
  [18F]D4-FCH-phosphocholine formation: significantly inhibited
Choline kinase A (CHKA)
  CHKA protein expression in vivo: significant reduction
HCT116 tumors; HCT116 tumors, 10 days of 25 mg/kg daily vs vehicle, 25 mg/kg
  tumor [18F]D4-FCH uptake / retention: significant reduction in tumor [^18F]D4-FCH uptake; also recorded: marked reduction in radiotracer retention
HCT116 tumors; day 10 compared to the pretreatment group, 25 mg/kg daily, oral
  reduction in tumor size: 12.2%
CHKA
  CHKA expression in vitro: reduction of CHKA expression

## C[N+](C)(C[18F])CCO [[^18F]FCH, [^18F]Fluoromethylcholine, reference compound]
[1]
  unknown metabolite (possibly the aldehyde intermediate) in liver: not found
[1]; 30 min
  kidney radioactivity as phosphocholine: 31.8±9.8%
  kidney radioactivity in the form of betaine: 53.5±5.3%
  unknown metabolite in kidney: 3.3±0.6%
[1]; iv, 30 min
  form of radioactivity in tumors: significant levels of [^18F]FCH-betaine
[2]
  conversion to betaine metabolite in plasma: ~80%
[3]
  Tumor % ID/vox60: 5.50±0.49 % ID/vox
[4]
  Bladder (urine) % ID/vox60: 6.70±0.71 % ID/vox
  Kidney % ID/vox60: 15.97±4.65 % ID/vox
  Liver radioactivity % ID/vox60: 18.75±4.28 % ID/vox
Choline oxidase
  parent radiotracer present: 11±8%
[5]
  parent compound still present: less than 40%
